Laboratory results published in patent US20230295182A1, “SPIRO DERIVATIVES OF ALPHA-D-GALACTOPYRANOSIDES” (Idorsia Pharmaceuticals Ltd, priority 2020, published 2023).

Key:
human Gal-3 (hGal-3) = human Gal-3 (hGal-3) (Homo sapiens (Human), UniProt P17931); assay: Competitive binding assay: biotinylated hGal-3 to microplate-adsorbed asialofetuin (ASF); details: Activity on hGal-3; binding to ASF-coated plates, 3 hours at 4° C.; mean values
How it was run: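 Biotinylated hGal-3 (300-1000 ng/mL) binding to plate-adsorbed asialofetuin, with DMSO-diluted compound added, incubated 3 h at 4 °C. After washing, bound protein detected with streptavidin-peroxidase (80 ng/mL, 1 h, 4 °C) and ABTS substrate, read spectrophotometrically. IC50 given as mean of several measurements.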

human Gal-1 (hGal-1) = human Gal-1 (hGal-1) (Homo sapiens, UniProt P09382); assay: Competitive binding assay: biotinylated hGal-1 to microplate-adsorbed asialofetuin (ASF); details: Activities on hGal-1; binding to ASF-coated plates, 3 hours at 4° C.; mean values; read-out: Gal-1 IC50
Chain of human Gal-1 (hGal-1) (P09382 2-135 limits assumed): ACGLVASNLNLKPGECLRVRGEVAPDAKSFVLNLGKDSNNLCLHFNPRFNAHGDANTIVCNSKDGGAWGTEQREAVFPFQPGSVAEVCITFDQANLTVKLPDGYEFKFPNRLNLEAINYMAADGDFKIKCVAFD
How it was run: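 Plate-adsorbed asialofetuin is incubated 3 h at 4 °C with biotinylated hGal-1, optionally its all-serine-substituted cysteine variant, plus compound dilutions. ABTS color after 1 h streptavidin-peroxidase (80 ng/mL) at 4 °C reports binding. Reported IC50 is a mean across repeat runs.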

Chain of human Gal-3 (hGal-3) (P17931 whole entry): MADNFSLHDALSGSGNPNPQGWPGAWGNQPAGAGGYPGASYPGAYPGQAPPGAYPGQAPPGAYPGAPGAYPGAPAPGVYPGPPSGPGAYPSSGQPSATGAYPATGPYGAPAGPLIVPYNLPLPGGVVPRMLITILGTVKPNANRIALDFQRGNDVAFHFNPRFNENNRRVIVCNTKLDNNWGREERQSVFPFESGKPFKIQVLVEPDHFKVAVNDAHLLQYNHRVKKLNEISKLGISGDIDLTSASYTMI

IC50 (human Gal-3 (hGal-3)) | IC50 (human Gal-1 (hGal-1)) | Molecule
0.39 µM | 1.7 µM | CO[C@@H]1[C@@H](n2cc(-c3cc(F)c(F)c(F)c3)nn2)[C@@H](O)[C@@H](CO)O[C@@H]1CC1=NOC2(CCC(N3CCOCC3)CC2)C1 (stereo partly drawn) [Example 2.19, (2R,3R,4S,5R,6R)-2-(hydroxymethyl)-5-methoxy-6-((8-morpholino-1-oxa-2-azaspiro[4.5]dec-2-en-3-yl)methyl)-4-(4-(3,4,5-trifluorophenyl)-1H-1,2,3-triazol-1-yl)tetrahydro-2H-pyran-3-ol]
0.11 µM | 1.8 µM | CO[C@@H]1[C@@H](n2cc(-c3cc(F)c(F)c(F)c3)nn2)[C@@H](O)[C@@H](CO)O[C@@H]1CC1=NO[C@]2(CC[C@H](NCC(F)F)CC2)C1 [Example 2.20, (2R,3R,4S,5R,6R)-6-(((5r,8R)-8-((2,2-difluoroethyl)amino)-1-oxa-2-azaspiro[4.5]dec-2-en-3-yl)methyl)-2-(hydroxymethyl)-5-methoxy-4-(4-(3,4,5-trifluorophenyl)-1H-1,2,3-triazol-1-yl)tetrahydro-2H-pyran-3-ol]
0.38 µM | 1.6 µM | CO[C@@H]1[C@@H](n2cc(-c3cc(F)c(F)c(F)c3)nn2)[C@@H](O)[C@@H](CO)O[C@@H]1CC1=NO[C@]2(CC[C@@H](NCC(F)F)CC2)C1 [Example 2.21, (2R,3R,4S,5R,6R)-6-(((5s,8S)-8-((2,2-difluoroethyl)amino)-1-oxa-2-azaspiro[4.5]dec-2-en-3-yl)methyl)-2-(hydroxymethyl)-5-methoxy-4-(4-(3,4,5-trifluorophenyl)-1H-1,2,3-triazol-1-yl)tetrahydro-2H-pyran-3-ol]
0.14 µM | 1.3 µM | CO[C@@H]1[C@@H](n2cc(-c3cc(F)c(F)c(F)c3)nn2)[C@@H](O)[C@@H](CO)O[C@@H]1CC1=NO[C@]2(CC[C@H](NC3CC3)CC2)C1 [Example 2.22, (2R,3R,4S,5R,6R)-6-(((5r,8R)-8-(cyclopropylamino)-1-oxa-2-azaspiro[4.5]dec-2-en-3-yl)methyl)-2-(hydroxymethyl)-5-methoxy-4-(4-(3,4,5-trifluorophenyl)-1H-1,2,3-triazol-1-yl)tetrahydro-2H-pyran-3-ol]
0.59 µM | 1.6 µM | CO[C@@H]1[C@@H](n2cc(-c3cc(F)c(F)c(F)c3)nn2)[C@@H](O)[C@@H](CO)O[C@@H]1CC1=NO[C@]2(CC[C@@H](NC3CC3)CC2)C1 [Example 2.23, (2R,3R,4S,5R,6R)-6-(((5s,8S)-8-(cyclopropylamino)-1-oxa-2-azaspiro[4.5]dec-2-en-3-yl)methyl)-2-(hydroxymethyl)-5-methoxy-4-(4-(3,4,5-trifluorophenyl)-1H-1,2,3-triazol-1-yl)tetrahydro-2H-pyran-3-ol]
0.08 µM | 6.7 µM | Cc1ccc(-c2cn([C@H]3[C@@H](O)[C@@H](CO)O[C@H](CC4=NOC5(CCOCC5)C4)[C@@H]3OCC(=O)O)nn2)c(F)c1F [Example 2.24, 2-(((2R,3R,4S,5R,6R)-2-((1,8-dioxa-2-azaspiro[4.5]dec-2-en-3-yl)methyl)-4-(4-(2,3-difluoro-4-methylphenyl)-1H-1,2,3-triazol-1-yl)-5-hydroxy-6-(hydroxymethyl)tetrahydro-2H-pyran-3-yl)oxy)acetic acid]
0.037 µM | 3.7 µM | Cc1ccc(-c2cn([C@H]3[C@@H](O)[C@@H](CO)O[C@H](CC4=NOC5(CCCCC5)C4)[C@@H]3OCC(=O)O)nn2)c(F)c1F [Example 2.25, 2-(((2R,3R,4S,5R,6R)-2-((1-oxa-2-azaspiro[4.5]dec-2-en-3-yl)methyl)-4-(4-(2,3-difluoro-4-methylphenyl)-1H-1,2,3-triazol-1-yl)-5-hydroxy-6-(hydroxymethyl)tetrahydro-2H-pyran-3-yl)oxy)acetic acid]
0.09 µM | 3.5 µM | O=C(O)CO[C@@H]1[C@@H](n2cc(-c3cc(F)c(F)c(F)c3)nn2)[C@@H](O)[C@@H](CO)O[C@@H]1CC1=NOC2(CCCCC2)C1 [Example 2.26, 2-(((2R,3R,4S,5R,6R)-2-((1-oxa-2-azaspiro[4.5]dec-2-en-3-yl)methyl)-5-hydroxy-6-(hydroxymethyl)-4-(4-(3,4,5-trifluorophenyl)-1H-1,2,3-triazol-1-yl)tetrahydro-2H-pyran-3-yl)oxy)acetic acid]
0.14 µM | 1.7 µM | CO[C@@H]1[C@@H](n2cc(-c3cc(F)c(F)c(F)c3)nn2)[C@@H](O)[C@@H](CO)O[C@@H]1CC1=NOC2(CCN(C(=O)NC(C)(C)C)CC2)C1 [Example 2.28, N-(tert-butyl)-3-(((2R,3R,4S,5R,6R)-5-hydroxy-6-(hydroxymethyl)-3-methoxy-4-(4-(3,4,5-trifluorophenyl)-1H-1,2,3-triazol-1-yl)tetrahydro-2H-pyran-2-yl)methyl)-1-oxa-2,8-diazaspiro[4.5]dec-2-ene-8-carboxamide]
0.38 µM | 4.8 µM | CO[C@@H]1[C@@H](n2cc(-c3cc(F)c(F)c(F)c3)nn2)[C@@H](O)[C@@H](CO)O[C@@H]1CC1=NOC2(CCN(C)CC2)C1 [Example 2.29, (2R,3R,4S,5R,6R)-2-(hydroxymethyl)-5-methoxy-6-((8-methyl-1-oxa-2,8-diazaspiro[4.5]dec-2-en-3-yl)methyl)-4-(4-(3,4,5-trifluorophenyl)-1H-1,2,3-triazol-1-yl)tetrahydro-2H-pyran-3-ol]
0.28 µM | 2.8 µM | CO[C@@H]1[C@@H](n2cc(-c3cc(F)c(F)c(F)c3)nn2)[C@@H](O)[C@@H](CO)O[C@@H]1CC1=NOC2(CCN(C(C)=O)CC2)C1 [Example 2.30, 1-(3-(((2R,3R,4S,5R,6R)-5-hydroxy-6-(hydroxymethyl)-3-methoxy-4-(4-(3,4,5-trifluorophenyl)-1H-1,2,3-triazol-1-yl)tetrahydro-2H-pyran-2-yl)methyl)-1-oxa-2,8-diazaspiro[4.5]dec-2-en-8-yl)ethan-1-one]
0.53 µM | 3.5 µM | CO[C@@H]1[C@@H](n2cc(-c3cc(F)c(F)c(F)c3)nn2)[C@@H](O)[C@@H](CO)O[C@@H]1CC1=NOC2(CCN(S(C)(=O)=O)CC2)C1 [Example 2.31, (2R,3R,4S,5R,6R)-2-(hydroxymethyl)-5-methoxy-6-((8-(methylsulfonyl)-1-oxa-2,8-diazaspiro[4.5]dec-2-en-3-yl)methyl)-4-(4-(3,4,5-trifluorophenyl)-1H-1,2,3-triazol-1-yl)tetrahydro-2H-pyran-3-ol]
0.12 µM | 2.7 µM | CO[C@@H]1[C@@H](n2cc(-c3cc(F)c(F)c(F)c3)nn2)[C@@H](O)[C@@H](CO)O[C@@H]1CN1CC2(CCN(C(=O)OC(C)(C)C)CC2)OC1=O [Example 3.01, tert-butyl 3-(((2R,3R,4S,5R,6R)-5-hydroxy-6-(hydroxymethyl)-3-methoxy-4-(4-(3,4,5-trifluorophenyl)-1H-1,2,3-triazol-1-yl)tetrahydro-2H-pyran-2-yl)methyl)-2-oxo-1-oxa-3,8-diazaspiro[4.5]decane-8-carboxylate]
0.036 µM | 1.4 µM | CO[C@@H]1[C@@H](n2cc(-c3ccc(C)c(F)c3F)nn2)[C@@H](O)[C@@H](CO)O[C@@H]1CN1CC2(CCCCC2)OC1=O [Example 3.02, 3-(((2R,3R,4S,5R,6R)-4-(4-(2,3-difluoro-4-methylphenyl)-1H-1,2,3-triazol-1-yl)-5-hydroxy-6-(hydroxymethyl)-3-methoxytetrahydro-2H-pyran-2-yl)methyl)-1-oxa-3-azaspiro[4.5]decan-2-one]
0.09 µM | 2.3 µM | CO[C@@H]1[C@@H](n2cc(-c3ccc(C)c(F)c3F)nn2)[C@@H](O)[C@@H](CO)O[C@@H]1CN1CC2(CCOCC2)OC1=O [Example 3.03, 3-(((2R,3R,4S,5R,6R)-4-(4-(2,3-difluoro-4-methylphenyl)-1H-1,2,3-triazol-1-yl)-5-hydroxy-6-(hydroxymethyl)-3-methoxytetrahydro-2H-pyran-2-yl)methyl)-1,8-dioxa-3-azaspiro[4.5]decan-2-one]
0.074 µM | 0.4 µM | CO[C@@H]1[C@@H](n2cc(-c3ccc(Cl)c(F)c3F)nn2)[C@@H](O)[C@@H](CO)O[C@@H]1CN1CC2(CCCCC2)CNC1=O [Example 4.02, 2-(((2R,3R,4S,5R,6R)-4-(4-(4-chloro-2,3-difluorophenyl)-1H-1,2,3-triazol-1-yl)-5-hydroxy-6-(hydroxymethyl)-3-methoxytetrahydro-2H-pyran-2-yl)methyl)-2,4-diazaspiro[5.5]undecan-3-one]
0.074 µM | 1.7 µM | CO[C@@H]1[C@@H](n2cc(-c3ccc(C)c(F)c3F)nn2)[C@@H](O)[C@@H](CO)O[C@@H]1CN1CC2(CCCCC2)N=C1C [Example 4.03, (2R,3R,4S,5R,6R)-4-(4-(2,3-difluoro-4-methylphenyl)-1H-1,2,3-triazol-1-yl)-2-(hydroxymethyl)-5-methoxy-6-((2-methyl-1,3-diazaspiro[4.5]dec-1-en-3-yl)methyl)tetrahydro-2H-pyran-3-ol]
0.081 µM | 1.3 µM | CO[C@@H]1[C@@H](n2cc(-c3ccc(C)c(F)c3F)nn2)[C@@H](O)[C@@H](CO)O[C@@H]1CN1C=NC2(CCCCC2)C1 [Example 4.04, (2R,3R,4S,5R,6R)-6-((1,3-diazaspiro[4.5]dec-1-en-3-yl)methyl)-4-(4-(2,3-difluoro-4-methylphenyl)-1H-1,2,3-triazol-1-yl)-2-(hydroxymethyl)-5-methoxytetrahydro-2H-pyran-3-ol]
0.081 µM | 11.5 µM | (2R,3R,4S,5R,6R)-6-((8,8-difluoro-1-oxa-2-azaspiro[4.5]dec-2-en-3-yl)methyl)-4-(4-(2,3-difluoro-4-methylphenyl)-1H-1,2,3-triazol-1-yl)-2-(hydroxymethyl)-5-methoxytetrahydro-2H-pyran-3-ol [Example 2.27]
